Data as given in patent US20170066717A1, “NEW PHENYLAZETIDINECARBOXYLATE OR -CARBOXAMIDE COMPOUNDS” (INVENTIVA, priority 2014, published 2017).

How the values were obtained:
[1] = target: T1, NURR-1/RXRγ (Homo sapiens, UniProt P48443); test: Transactivation test, NURR-1-Gal4/RXRγ, luciferase reporter in Cos-7 cells; assay type: cell-based; details: for Emax: COS-7, induction level relative to reference XCT0135908 at 2×10^−5 M (=100%), read-out: hNurr1_RXRgFL Emax (%); for EC50: Cos-7 cells, NURR-1-Gal4/RXRγ, luciferase reporter, read-out: hNurr1_RXRgFL EC50
T1 construct: expressed in transfected cells; host or cells: Cos-7 cells
T1 sequence (P48443 whole entry, the tested form may be a part): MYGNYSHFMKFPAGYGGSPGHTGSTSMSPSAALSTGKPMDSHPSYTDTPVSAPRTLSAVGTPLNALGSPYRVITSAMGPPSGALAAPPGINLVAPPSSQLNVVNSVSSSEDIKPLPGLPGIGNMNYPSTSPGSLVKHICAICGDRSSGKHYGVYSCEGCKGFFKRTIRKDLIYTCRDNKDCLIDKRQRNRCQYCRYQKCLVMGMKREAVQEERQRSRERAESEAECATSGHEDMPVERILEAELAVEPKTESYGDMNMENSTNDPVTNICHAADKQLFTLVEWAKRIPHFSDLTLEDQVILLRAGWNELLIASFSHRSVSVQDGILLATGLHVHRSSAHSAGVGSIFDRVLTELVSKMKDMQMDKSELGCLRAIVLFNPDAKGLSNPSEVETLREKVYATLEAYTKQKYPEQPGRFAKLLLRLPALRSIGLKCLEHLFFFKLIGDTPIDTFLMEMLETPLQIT
T1 sequence (P43354 whole entry partner, the tested form may be a part): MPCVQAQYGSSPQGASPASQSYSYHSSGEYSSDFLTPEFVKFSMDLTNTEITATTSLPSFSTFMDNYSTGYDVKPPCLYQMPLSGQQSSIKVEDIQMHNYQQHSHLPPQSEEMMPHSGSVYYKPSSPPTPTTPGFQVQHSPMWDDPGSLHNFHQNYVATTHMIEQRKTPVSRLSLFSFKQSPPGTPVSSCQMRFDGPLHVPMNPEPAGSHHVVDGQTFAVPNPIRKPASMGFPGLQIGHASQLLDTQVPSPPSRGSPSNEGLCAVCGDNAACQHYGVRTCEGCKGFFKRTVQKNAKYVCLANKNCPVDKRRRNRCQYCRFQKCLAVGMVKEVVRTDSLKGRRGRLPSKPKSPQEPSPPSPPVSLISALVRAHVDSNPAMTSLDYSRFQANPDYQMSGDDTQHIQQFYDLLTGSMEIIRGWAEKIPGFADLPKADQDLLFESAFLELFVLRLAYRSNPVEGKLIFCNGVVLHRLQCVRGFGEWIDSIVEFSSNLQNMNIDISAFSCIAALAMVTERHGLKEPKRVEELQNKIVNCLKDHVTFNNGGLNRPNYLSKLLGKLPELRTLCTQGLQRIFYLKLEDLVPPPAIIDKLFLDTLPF
T1 sequence (P04386 1-147 partner limits assumed): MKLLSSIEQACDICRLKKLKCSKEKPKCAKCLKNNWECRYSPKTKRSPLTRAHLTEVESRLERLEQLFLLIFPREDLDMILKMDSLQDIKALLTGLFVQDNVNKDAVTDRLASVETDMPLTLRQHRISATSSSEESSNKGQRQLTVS

[2] = target: T2, NURR-1/RXRα (Homo sapiens, UniProt P19793); test: Transactivation test, NURR-1-Gal4/RXRα, luciferase reporter in Cos-7 cells; assay type: cell-based; details: for Emax: COS-7, induction level relative to reference XCT0135908 at 2×10^−5 M (=100%), read-out: hNurr1_RXRaFL Emax (%); for EC50: Cos-7 cells, NURR-1-Gal4/RXRα, luciferase reporter, read-out: hNurr1_RXRaFL EC50
T2 construct: expressed in transfected cells; host or cells: Cos-7 cells
T2 sequence (P19793 whole entry, the tested form may be a part): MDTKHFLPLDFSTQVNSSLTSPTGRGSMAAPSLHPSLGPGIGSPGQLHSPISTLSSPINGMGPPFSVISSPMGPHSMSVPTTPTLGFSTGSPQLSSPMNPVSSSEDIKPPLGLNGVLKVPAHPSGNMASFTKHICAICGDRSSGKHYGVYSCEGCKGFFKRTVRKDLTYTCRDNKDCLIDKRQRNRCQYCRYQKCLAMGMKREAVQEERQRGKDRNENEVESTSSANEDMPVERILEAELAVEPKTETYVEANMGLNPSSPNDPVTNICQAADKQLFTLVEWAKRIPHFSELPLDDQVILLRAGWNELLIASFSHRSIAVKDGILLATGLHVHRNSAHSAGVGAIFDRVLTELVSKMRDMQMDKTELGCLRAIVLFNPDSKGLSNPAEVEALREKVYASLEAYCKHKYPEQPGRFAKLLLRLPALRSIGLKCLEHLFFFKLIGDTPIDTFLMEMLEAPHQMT
T2 sequence (P43354 whole entry partner, the tested form may be a part): as the sequence (P43354 whole entry partner, the tested form may be a part) above
T2 sequence (P04386 1-147 partner limits assumed): as the sequence (P04386 1-147 partner limits assumed) above

SMILES	Emax [1] [%]	EC50 [1] [nM]	melting point [°C]	Emax [2] [%]	EC50 [2] [nM]
CC(C)c1ccc2c(c1)CCCN2c1cccc(N2CC(C(=O)[O-])C2)c1.[Na+] [Example 221, sodium 1-[3-(6-isopropyl-3,4-dihydro-2H-1uinolin-1-yl)phenyl]azetidine-3-carboxylate]	92	228	49 to 52	97	68
CC1(C)CN(c2cccc(N3CC(C(=O)O)C3)c2)c2ccc(Cl)cc2O1 [Example 224, 1-[3-(7-chloro-2,2-dimtethyl-3H-1,4-benzoxazin-4-yl)phenyl]azetidine-3-carboxylic acid]	93	65	66 to 71	110	38
Cc1ccc2c(c1)OC(C)(C)CN2c1cccc(N2CC(C(=O)O)C2)c1 [Example 227, 1-[3-(2,2,7-trimethyl-3H-1,4-benzoxazin-4-yl)phenyl]azetidine-3-carboxylic acid]	93	181	68 to 78	104	78
CC1(C)CN(c2cccc(N3CC(C(=O)O)C3)c2)c2ccc(C3CC3)cc2O1 [Example 229, 1-[3-(7-cyclopropyl-2,2-dimethyl-3H-1,4-benzoxazin-4yl)phenyl]azetidine-3-carboxylic acid]	104	420	67 to 71	104	243
COc1ccc2c(c1)OC(C)(C)CN2c1cccc(N2CC(C(=O)O)C2)c1 [Example 233, 1-[3-(7-methoxy-2,2-dimethyl-3H-1,4-benzoxazin-4-yl)phenyl]azetidine-3-catboxylic aicd]	52	1500	54 to 56	97	1570
CC(C)c1ccc2c(c1)OC(C)(C)CCN2c1cccc(N2CC(C(=O)O)C2)c1 [Example 234, 1-[3-(8-isopropyl-2,2-dimethyl-3,4-dihydro-1,5-benzoxazepin-5-yl)phenyl]azetidine-3-carboxylic acid]	81	2260	64 to 68	95	1710
CCc1ccc2c(c1)OC(C)(C)CN2c1cccc(N2CC(C(=O)[O-])C2)c1.[Na+] [Example 235, sodium 1-[3-(7-ethyl-2,2-dimethyl-3H-1,4-benzoxazin-4-yl)phenyl]azetidine-3-carboxylate]	107	174	160 to 188	102	92
CC1(C)CN(c2cccc(N3CC(C(=O)[O-])C3)c2)c2ncc(C(F)(F)F)cc2O1.[Na+] [Example 241, sodium 1-[3-[2,2-dimethyl-7-(trifluoromethyl)-3H-pyrido[3,2-b][1,4]oxazin-4-yl]phenyl]-azetidine-3-carboxylate]	107	194	123 to 139	100	110
CC1(C)CN(c2cccc(N3CC(C(=O)[O-])C3)c2)c2cnc(C(F)(F)F)cc2O1.[Na+] [Example 242, sodium 1-[3-[2,2-dimethyl-7-(trofluoromethyl)-3H-pyrido[4,3-b][1,4]ozaxin-4-yl]phenyl]azetidine-3-carboxylate]	76	299	149 to 155	84	227
CC1(C)Cc2cc(Cl)ccc2N(c2cccc(N3CC(C(=O)[O-])C3)c2)C1.[Na+] [Example 243, sodium 1-[3-(6-chloro-3,3-dimethyl-2,4-dihydroquinolin-1-yl)phenyl]azetidine-3-carboxylate]	89	34	70 to 80	83	58

Results, then the molecule that gave them:

Emax [1] [%]	EC50 [1] [nM]	melting point [°C]	Emax [2] [%]	EC50 [2] [nM]	SMILES
115	13	70 to 80	98	8	CC1N(c2cccc(N3CC(C(=O)O)C3)c2)c2ccc(C(F)(F)F)cc2OC1(C)C (centres unmarked) [Example 216, 1-[3-[2,2,3-trimethyl-7-(trifluoromethyl)-3H-1,4-benzoxazin-4-yl]phenyl]azetidine-3-carboxylate acid]
73	14	70 to 79	72	5	CCC1(CC)CN(c2cccc(N3CC(C(=O)O)C3)c2)c2ccc(C(F)(F)F)cc2O1 [Example 218, 1-[3-[2,2-diethyl-7-(trifluoromethyl)-3H-1,4-benzoxazin-4-yl]phenyl]azetidine-3-carboxylic acid]
110	32	66 to 84	105	5	CC1(C)Cc2cc(C(F)(F)F)ccc2N(c2cccc(N3CC(C(=O)O)C3)c2)C1 [Example 219, 1-[3-[3,3-dimethyl-6-(trifluoromethyl)-2,4-dihydroquinolin-1-yl]phenyl]azetidine-3-carboxylic acid]
90	14	57 to 62	92	6	O=C(O)C1CN(c2cccc(N3CCCc4cc(C(F)(F)F)ccc43)c2)C1 [Example 220, 1-[3-[6-(trifluoromethyl)-3,4-dihydro-2H-quinolin-1-yl]phenyl]azetidine-3-carboxylic acid]
81	48	64 to 71	80	25	CC(C)C1CN(c2cccc(N3CC(C(=O)O)C3)c2)c2ccc(C(F)(F)F)cc2O1 (centres unmarked) [Example 223, 1-[3-[2-isopropyl-7-(trifluoromethyl)-2,3-dihydro-1,4-benzoxazin-4-yl]phenyl]azetidine-3-carboxylic acid]
106	156	69 to 76	103	71	CC1(C)CN(c2cccc(N3CC(C(=O)O)C3)c2)c2ccc(OC(F)(F)F)cc2O1 [Example 226, 1-[3-[2,2-dimethyl-7-(trifluoromethyoxy)-3H-1,4-benzoxazin-4-yl]phenyl]azetidine-3-carboxylic acid]
99	465	48 to 51	97	386	CC(C)c1ccc2c(c1)OCCN2c1cccc(N2CC(C(=O)O)C2)c1 [Example 232, 1-[3-(7-isopropyl-2,3-dihydro-1,4-benzoxazin-4-yl)phenyl]azetidine-3-carboxylic acid]
98	63	70 to 75	93	21	COc1cc(N2CC(C(=O)O)C2)cc(N2CC(C)(C)Oc3cc(C(F)(F)F)ccc32)c1 [Example 236, 1-[3-[2,2-dimethyl-7-(trifluoromethyl)-3H-1,4-benzoxazin-4-yl]-5-methoxyphenyl]azetidine-3-carboxylic acid]
77	257	74 to 83	82	57	Cc1ccc(N2CC(C(=O)O)C2)cc1N1CC(C)(C)Oc2cc(C(F)(F)F)ccc21 [Example 237, 1-[3-[2,2-dimethyl-7-(trifluoromethyl)-3H-1,4-benzoxazin-4-yl]-4-methylphenyl]azetidine-3-carboxylic acid]
82	154	168 to 171	86	103	Cc1c(N2CC(C(=O)O)C2)cccc1N1CC(C)(C)Oc2cc(C(F)(F)F)ccc21 [Example 238]
102	6110	96 to 99	118	234	Cc1ccc(N2CC(C)(C)Oc3cc(C(F)(F)F)ccc32)cc1N1CC(C(=O)O)C1 [Example 239, 1-[5-[2,2-dimethyl-7-(trifluoromethyl)-3H-1,4-benzoxazin-4-yl]2-methylphenyl]azetidine-3-carboxylic acid]
94	53	86 to 96	96	13	CC(C)CC1Oc2cc(C(F)(F)F)ccc2N(c2cccc(N3CC(C(=O)O)C3)c2)C1=O (centres unmarked) [Example 246, 1-[3-[2-isobutyl-3-oxo-7-(trifluoromethyl)-1,4-benzoxazin-4-yl]phenyl]azetidine-3-carboxylic acid]
92	43	73 to 85	100	19	CCC1(CC)Oc2cc(C(F)(F)F)ccc2N(c2cccc(N3CC(C(=O)O)C3)c2)C1=O [Example 247, 1-[3-[2,2-diethyl-3-oxo-7-(trifluoromethyl)-1,4-benzoxazin-4-yl]phenyl]azetidine-3-carboxylic acid]
92	313	78 to 87	105	22	CC(C)C1Oc2cc(C(F)(F)F)ccc2N(c2cccc(N3CC(C(=O)O)C3)c2)C1=O (centres unmarked) [Example 248, 1-[3-[2-isopropyl-3-oxo-7-(trifluoromethyl)-1,4-benzoxazin-4-yl]phenyl]azetidine-3-carboxylic acid]
83	548	78 to 91	95	245	Cc1ccc2c(c1)OC(C)(C)C(=O)N2c1cccc(N2CC(C(=O)O)C2)c1 [Example 249, 1-[3-(2,2,7-trimethyl-3-oxo-1,4-benzoxazin-4-yl)phenyl]azetidine-3-carboxylic acid]
